Test results published in US20190262330A1, “Method of Treating Hepatocellular Carcinoma Using N-(4-(6,7-dimethoxyquinolin-4-yloxy)phenyl)-N′-(4-fluorophenyl)cyclopropane-1,1-dicarboxamide, (2S)-hydroxybutanedioate” (Exelixis, Inc., priority 2017, published 2019).

Columns and labels:
[1] = system: CYP1A2; assay: In vitro CYP induction; type: in vitro ADME
[2] = target: T1, CYP2C19 (Homo sapiens, UniProt P33261); assay: In vitro metabolic pathways; type: in vitro ADME
[3] = target: TIE-2 (Homo sapiens, UniProt Q02763); assay: In vitro biochemical and/or cellular kinase assays
[4] = target: MRP2 (Homo sapiens, UniProt Q92887); assay: Drug transporter systems; type: in vitro ADME; details: in vitro
[5] = target: CYP2C9 (Homo sapiens, UniProt P11712); assay: In vitro CYP inhibition; type: in vitro ADME
[6] = target: T2, CYP3A4 (Homo sapiens, UniProt P08684); assay: In vitro CYP inhibition; type: in vitro ADME
[7] = system: murine models of hepatocellular carcinoma; details: mouse, in vivo; cited from earlier work
[8] = target: T2, CYP3A4; assay: Drug interaction with strong CYP3A4 inhibitor ketoconazole; type: in vivo; design: from tissue; details: ketoconazole 400 mg daily for 27 days, healthy subjects
[9] = system: previously treated advanced hepatocellular carcinoma; assay: Phase 3 CELESTIAL trial, efficacy (overall survival, progression-free survival, objective response); type: in vivo, human
Description: Eligible patients were 18 years of age or older with a pathologic diagnosis of hepatocellular carcinoma not amenable to curative treatment and with Child-Pugh Class A liver function. […] Additional inclusion criteria included Eastern Cooperative Oncology Group (ECOG) performance status of 0 or 1, acceptable hematologic parameters, and adequate renal function.
Randomization was stratified by disease etiology (HBV virus [with or without HCV], HCV [without HBV], or other), geographic region (Asia or other), and the presence of extrahepatic spread of disease and/or macrovascular invasion (yes or no).
Treatment interruptions and dose reductions (to 40 mg and then to 20 mg) were utilized to manage adverse events. Patients received study treatment as long as they experienced clinical benefit as judged by the investigator or until they experienced unacceptable toxicity.
The inflation of type 1 error was controlled by Lan-DeMets O'Brien-Fleming alpha-spending function.
Secondary efficacy endpoints were progression-free survival, defined as the time from randomization to the earlier of radiographic progression or death due to any cause, and objective response rate. Tumor assessments were performed using computed tomography or magnetic resonance imaging at baseline and every 8 weeks after randomization until the later of 8 weeks after radiographic progression or treatment discontinuation. Tumor response and progression were assessed by the investigator using Response Evaluation Criteria In Solid Tumors (RECIST) version 1.1. Eisenhauer E A, Therasse P, Bogaerts J, et al. New response evaluation criteria in solid tumours: revised RECIST guideline (version 1.1). […] Safety was continuously evaluated, and the severity of adverse events was assessed by the investigator using the National Cancer Institute Common Terminology Criteria for Adverse Events, version 4. Progression-free survival was tested by stratified log-rank test; significance level 0.04. Overall response rate was tested by 2-sided Fisher's exact test; significance level Of 0.01.
Efficacy was analyzed in all randomized patients by the intent-to-treat principle. Safety was analyzed in all patients who received at least one dose of study treatment. […] Hazard ratios were estimated using Cox regression models. Hypothesis testing for objective response was done with the Cochran-Mantel-Haenszel method. All subgroup analyses of overall survival and progression-free survival were prespecified except for those based on extrahepatic spread of disease or macrovascular invasion as separate factors or sorafenib as the only prior therapy. For subgroup analyses, no adjustments were made for multiplicity, hazard ratios are unstratified, and confidence intervals are considered descriptive.
Patients could have received one other prior systemic therapy. The primary efficacy endpoint was overall survival (OS). Secondary efficacy endpoints were progression-free survival (PFS) and objective response rate (ORR), as assessed by investigator using RECIST 1.1. Tumor assessments were conducted every 8 weeks.

[10] = system: CYP2C8; assay: In vitro CYP induction; type: in vitro ADME
[11] = target: VEGFR-3 (Homo sapiens, UniProt P35916); assay: In vitro biochemical and/or cellular kinase assays
[12] = system: female rats; assay: 14-day general toxicology study in female rats; type: in vivo, rat; details: 5 mg/kg/day for 14 days
[13] = system: previously treated advanced HCC; assay: CELESTIAL secondary analysis: target lesion size, serum AFP, time to progression; type: in vivo, human
Procedure: Patients must have received prior sorafenib and were allowed up to 2 lines of prior systemic therapy for HCC. Change in the sum of target lesion diameters (SOD) from baseline was determined every 8 weeks by investigator. Best percentage change in SOD was defined as the maximum reduction in SOD at any postbaseline timepoint. Serum AFP levels were measured centrally at baseline and every 8 weeks on the same schedule as tumor assessments. TTP was defined as the time from randomization to radiological progression or clinical deterioration and was determined retrospectively.

[14] = target: ROS1 (Homo sapiens, UniProt P08922); assay: In vitro biochemical and/or cellular kinase assays
[15] = target: CYP2B6 (Homo sapiens, UniProt P20813); assay: In vitro metabolic pathways; type: in vitro ADME
[16] = system: CYP2C9; assay: In vitro CYP induction; type: in vitro ADME
[17] = target: FLT-3 (Homo sapiens, UniProt P36888); assay: In vitro biochemical and/or cellular kinase assays
[18] = system: female rats and offspring; assay: Pre- and postnatal study in rats; details: oral, gestation day 10 through postnatal day 20
[19] = target: T1, CYP2C19; assay: In vitro CYP inhibition; type: in vitro ADME
[20] = target: CYP1A2 (Homo sapiens, UniProt P05177); assay: In vitro metabolic pathways; type: in vitro ADME
[21] = subgroup whose only prior systemic therapy was sorafenib

T2 sequence (P08684 whole entry): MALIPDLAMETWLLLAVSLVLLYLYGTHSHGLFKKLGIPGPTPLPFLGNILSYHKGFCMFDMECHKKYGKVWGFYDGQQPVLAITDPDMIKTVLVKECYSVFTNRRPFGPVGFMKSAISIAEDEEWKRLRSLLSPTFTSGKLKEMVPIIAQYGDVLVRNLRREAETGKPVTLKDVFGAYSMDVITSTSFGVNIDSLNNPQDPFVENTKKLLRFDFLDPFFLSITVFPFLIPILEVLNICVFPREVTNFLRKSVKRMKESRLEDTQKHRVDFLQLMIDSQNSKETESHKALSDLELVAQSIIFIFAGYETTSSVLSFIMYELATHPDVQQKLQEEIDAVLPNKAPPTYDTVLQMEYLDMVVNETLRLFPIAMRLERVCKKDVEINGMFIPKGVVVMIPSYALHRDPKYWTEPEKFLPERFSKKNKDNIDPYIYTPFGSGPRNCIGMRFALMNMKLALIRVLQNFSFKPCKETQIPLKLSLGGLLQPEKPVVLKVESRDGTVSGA
T1 sequence (P33261 whole entry): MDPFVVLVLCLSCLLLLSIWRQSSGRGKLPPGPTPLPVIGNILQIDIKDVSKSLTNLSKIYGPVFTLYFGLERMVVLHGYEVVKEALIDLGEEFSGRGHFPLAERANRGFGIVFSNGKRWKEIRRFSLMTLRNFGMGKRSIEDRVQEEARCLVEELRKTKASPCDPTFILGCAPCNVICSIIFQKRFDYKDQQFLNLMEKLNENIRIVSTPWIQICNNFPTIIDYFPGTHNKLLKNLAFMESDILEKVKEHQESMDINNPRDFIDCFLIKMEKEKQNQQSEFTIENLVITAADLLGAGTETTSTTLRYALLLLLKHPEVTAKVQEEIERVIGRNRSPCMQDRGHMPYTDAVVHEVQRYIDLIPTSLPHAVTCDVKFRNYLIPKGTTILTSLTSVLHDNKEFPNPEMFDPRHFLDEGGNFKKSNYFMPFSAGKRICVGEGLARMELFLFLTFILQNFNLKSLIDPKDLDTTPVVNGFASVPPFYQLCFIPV
MRP2, sequence (Q92887 whole entry): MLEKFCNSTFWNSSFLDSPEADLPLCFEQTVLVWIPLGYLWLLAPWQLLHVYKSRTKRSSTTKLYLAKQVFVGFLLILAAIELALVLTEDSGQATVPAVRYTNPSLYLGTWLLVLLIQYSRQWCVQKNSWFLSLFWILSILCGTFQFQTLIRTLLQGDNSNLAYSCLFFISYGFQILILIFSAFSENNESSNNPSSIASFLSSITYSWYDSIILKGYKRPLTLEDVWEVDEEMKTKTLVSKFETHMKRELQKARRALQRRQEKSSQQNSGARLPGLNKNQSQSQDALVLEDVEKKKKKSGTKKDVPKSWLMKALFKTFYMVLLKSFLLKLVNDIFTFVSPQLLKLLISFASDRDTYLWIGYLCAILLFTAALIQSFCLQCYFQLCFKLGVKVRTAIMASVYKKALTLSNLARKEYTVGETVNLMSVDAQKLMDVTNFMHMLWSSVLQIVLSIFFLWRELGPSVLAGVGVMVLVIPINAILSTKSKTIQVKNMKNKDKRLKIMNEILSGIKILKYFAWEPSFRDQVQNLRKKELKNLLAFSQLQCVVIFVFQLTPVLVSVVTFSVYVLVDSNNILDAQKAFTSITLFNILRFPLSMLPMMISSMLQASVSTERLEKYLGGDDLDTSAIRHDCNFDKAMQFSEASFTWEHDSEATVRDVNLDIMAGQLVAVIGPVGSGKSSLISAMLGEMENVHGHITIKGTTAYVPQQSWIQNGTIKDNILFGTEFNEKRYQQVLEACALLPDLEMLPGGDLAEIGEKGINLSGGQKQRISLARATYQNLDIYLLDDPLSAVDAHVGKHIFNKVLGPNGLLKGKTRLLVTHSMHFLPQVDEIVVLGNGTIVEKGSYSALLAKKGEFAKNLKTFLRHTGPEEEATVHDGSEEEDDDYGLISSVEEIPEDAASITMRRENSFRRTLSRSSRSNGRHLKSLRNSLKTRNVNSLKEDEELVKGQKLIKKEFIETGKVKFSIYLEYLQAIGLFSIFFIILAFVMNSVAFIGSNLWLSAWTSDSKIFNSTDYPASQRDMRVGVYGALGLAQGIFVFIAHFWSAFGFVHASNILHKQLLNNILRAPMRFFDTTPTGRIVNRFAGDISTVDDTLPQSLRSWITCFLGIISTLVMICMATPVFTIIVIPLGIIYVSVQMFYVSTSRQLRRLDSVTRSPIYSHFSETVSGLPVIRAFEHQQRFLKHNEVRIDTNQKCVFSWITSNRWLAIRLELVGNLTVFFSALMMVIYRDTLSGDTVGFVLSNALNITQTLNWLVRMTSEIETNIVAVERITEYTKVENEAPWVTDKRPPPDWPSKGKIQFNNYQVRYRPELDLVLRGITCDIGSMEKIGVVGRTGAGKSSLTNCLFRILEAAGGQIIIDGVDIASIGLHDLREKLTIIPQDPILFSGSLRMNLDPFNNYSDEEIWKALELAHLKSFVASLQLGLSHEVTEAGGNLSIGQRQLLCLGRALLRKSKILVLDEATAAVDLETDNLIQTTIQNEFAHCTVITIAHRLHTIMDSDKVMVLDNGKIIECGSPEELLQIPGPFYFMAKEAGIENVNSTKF
VEGFR-3, sequence (P35916 25-1363): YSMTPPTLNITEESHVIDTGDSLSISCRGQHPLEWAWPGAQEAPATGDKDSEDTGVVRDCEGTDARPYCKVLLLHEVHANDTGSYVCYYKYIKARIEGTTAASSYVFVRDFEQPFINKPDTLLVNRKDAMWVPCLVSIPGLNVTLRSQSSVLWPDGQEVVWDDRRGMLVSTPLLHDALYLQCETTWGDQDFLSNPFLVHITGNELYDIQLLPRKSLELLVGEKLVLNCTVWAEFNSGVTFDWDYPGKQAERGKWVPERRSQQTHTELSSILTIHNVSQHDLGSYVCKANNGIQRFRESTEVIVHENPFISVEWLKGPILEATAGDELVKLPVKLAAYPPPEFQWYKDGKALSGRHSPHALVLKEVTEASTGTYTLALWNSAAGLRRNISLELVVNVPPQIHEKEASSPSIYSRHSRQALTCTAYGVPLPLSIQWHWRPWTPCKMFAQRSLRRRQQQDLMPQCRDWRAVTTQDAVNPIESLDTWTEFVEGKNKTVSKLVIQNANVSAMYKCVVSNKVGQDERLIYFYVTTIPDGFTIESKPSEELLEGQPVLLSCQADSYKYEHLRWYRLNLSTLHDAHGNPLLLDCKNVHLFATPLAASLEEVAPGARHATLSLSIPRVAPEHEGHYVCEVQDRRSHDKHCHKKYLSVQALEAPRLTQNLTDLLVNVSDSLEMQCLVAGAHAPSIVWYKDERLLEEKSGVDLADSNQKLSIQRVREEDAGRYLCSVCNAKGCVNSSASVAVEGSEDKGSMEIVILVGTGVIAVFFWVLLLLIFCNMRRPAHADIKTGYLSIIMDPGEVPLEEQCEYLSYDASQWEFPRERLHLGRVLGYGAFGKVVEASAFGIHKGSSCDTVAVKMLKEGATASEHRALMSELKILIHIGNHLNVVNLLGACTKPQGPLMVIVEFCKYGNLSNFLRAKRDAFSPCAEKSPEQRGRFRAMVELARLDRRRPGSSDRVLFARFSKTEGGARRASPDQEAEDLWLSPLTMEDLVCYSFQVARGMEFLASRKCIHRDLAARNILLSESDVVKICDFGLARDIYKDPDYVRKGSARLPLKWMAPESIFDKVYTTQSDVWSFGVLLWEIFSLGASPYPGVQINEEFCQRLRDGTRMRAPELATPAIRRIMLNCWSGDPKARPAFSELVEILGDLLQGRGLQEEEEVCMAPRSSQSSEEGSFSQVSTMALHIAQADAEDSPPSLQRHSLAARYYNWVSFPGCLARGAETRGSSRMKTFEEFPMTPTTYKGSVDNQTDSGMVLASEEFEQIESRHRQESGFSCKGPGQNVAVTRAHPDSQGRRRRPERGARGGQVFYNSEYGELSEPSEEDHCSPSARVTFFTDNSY
TIE-2, sequence (Q02763 23-1124): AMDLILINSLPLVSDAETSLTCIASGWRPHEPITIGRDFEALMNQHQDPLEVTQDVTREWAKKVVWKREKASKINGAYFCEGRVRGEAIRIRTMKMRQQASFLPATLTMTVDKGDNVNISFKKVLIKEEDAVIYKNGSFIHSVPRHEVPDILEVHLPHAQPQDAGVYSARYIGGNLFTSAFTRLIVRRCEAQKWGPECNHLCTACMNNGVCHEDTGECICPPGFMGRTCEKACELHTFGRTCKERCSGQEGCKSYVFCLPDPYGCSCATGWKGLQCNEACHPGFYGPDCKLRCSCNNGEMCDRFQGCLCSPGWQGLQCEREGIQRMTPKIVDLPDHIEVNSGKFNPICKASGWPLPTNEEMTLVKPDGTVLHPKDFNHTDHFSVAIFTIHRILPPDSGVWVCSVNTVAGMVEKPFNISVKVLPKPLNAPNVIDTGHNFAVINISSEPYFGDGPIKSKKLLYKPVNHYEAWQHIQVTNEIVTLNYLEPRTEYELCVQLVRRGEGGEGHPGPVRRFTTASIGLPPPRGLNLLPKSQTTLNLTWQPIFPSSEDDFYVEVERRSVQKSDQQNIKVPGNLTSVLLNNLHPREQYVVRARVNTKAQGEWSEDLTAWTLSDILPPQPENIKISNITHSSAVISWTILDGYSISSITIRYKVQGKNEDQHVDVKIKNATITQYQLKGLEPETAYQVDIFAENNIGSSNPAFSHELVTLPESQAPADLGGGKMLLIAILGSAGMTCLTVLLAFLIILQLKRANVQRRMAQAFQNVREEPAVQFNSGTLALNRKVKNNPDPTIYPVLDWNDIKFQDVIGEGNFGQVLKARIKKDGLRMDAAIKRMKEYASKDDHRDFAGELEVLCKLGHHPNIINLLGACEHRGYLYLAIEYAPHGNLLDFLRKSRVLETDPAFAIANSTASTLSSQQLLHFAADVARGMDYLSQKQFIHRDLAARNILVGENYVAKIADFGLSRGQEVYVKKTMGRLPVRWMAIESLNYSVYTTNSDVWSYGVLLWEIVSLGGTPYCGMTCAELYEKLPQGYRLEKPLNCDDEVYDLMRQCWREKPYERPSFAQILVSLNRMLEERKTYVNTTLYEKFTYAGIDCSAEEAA

COc1cc2nccc(Oc3ccc(NC(=O)C4(C(=O)Nc5ccc(F)cc5)CC4)cc3)c2cc1OC [cabozantinib]
Induction of CYP1A2 [1]: does not induce
Effect of inhibition of CYP2C19 on metabolite formation [2]: no effect
Tyrosine kinase activity of TIE-2 [3]: inhibits
MRP2 substrate status [4]: substrate
Effect on CYP2C9 pathway [5]: affected by cabozantinib in vitro
Effect on CYP3A4 pathway [6]: affected by cabozantinib in vitro
Tumor growth [7]: inhibits tumor growth
Increase of single-dose plasma exposure (AUC0-inf) [8]: 38%
Kaplan-Meier landmark estimate of % of patients alive (95% CI) ([9]; 6 months): 72 (67-76) %
Kaplan-Meier landmark estimate of % of patients alive (95% CI) ([9]; 12 months): 46 (41-50) %
Kaplan-Meier landmark estimate of % of patients alive (95% CI) ([9]; 18 months): 32 (27-37) %
Kaplan-Meier landmark estimate of % of patients alive (95% CI) ([9]; 24 months): 18 (14-22) %
Disease control (partial response or stable disease) ([9]; ITT): 64%
Median overall survival ([9]; ITT, second interim analysis, 60 mg once daily): 10.2 months
Objective response rate ([9]; RECIST 1.1, confirmed responses, ITT): 4%
Median progression-free survival ([9]; RECIST 1.1 per investigator, ITT): 5.2 months
Best overall response: complete response, n (%) ([9]; by investigator): 0
Best overall response: not evaluable or missing ([9]; by investigator): (15) %
Best overall response: partial response ([9]; by investigator): (4) %
Best overall response: progressive disease ([9]; by investigator): (21) %
Best overall response: stable disease ([9]; by investigator): (60) %
Improvement in progression-free survival vs placebo ([9]; in vivo): more than 3 months
Median overall survival [9, 21]: 11.3 months
Median progression-free survival [9, 21]: 5.5 months
Induction of CYP2C8 [10]: does not induce
Tyrosine kinase activity of VEGFR-3 [11]: inhibits
Ovarian finding [12]: ovarian necrosis
Patients with any postbaseline reduction in SOD as best response ([13]; ITT): 47%
Patients with ≥30% reduction in SOD ([13]; ITT): 8%
Patients with ≥50% postbaseline decrease in serum AFP ([13]; ITT): 23%
Patients with ≥30% reduction in postbaseline SOD ([13]; baseline AFP <400 ng/mL): 9%
Patients with ≥30% reduction in postbaseline SOD ([13]; baseline AFP ≥400 ng/mL): 7%
Median TTP ([13]; in vivo): 5.4 months
Tyrosine kinase activity of ROS1 [14]: inhibits
Effect of inhibition of CYP2B6 on metabolite formation [15]: no effect
Induction of CYP2C9 [16]: does not induce
Tyrosine kinase activity of FLT-3 [17]: inhibits
Doses without adverse maternal toxicity or effect on offspring survival, growth or postnatal development [18]: up to 0.3 mg/kg/day
Effect on CYP2C19 pathway [19]: affected by cabozantinib in vitro
Effect of inhibition of CYP1A2 on metabolite formation [20]: no effect
